Assay results from patent US11642419B2, “Compositions and methods for treating cardiovascular related disorders” (The Regents of the University of Michigan, priority 2015, dated 2023).

Key:
[1] = Plasma lipids in C57BL/6J mice; format: in vivo; conditions: TO901317 0.5, 1.5, 10 mg/kg intraperitoneal, 24 hours later, FIG. 8
Protocol: (§1) FIGS. 8A and 8B show the effects of TO901317-encapsulated sHDL particles on plasma lipids in C57BL/6J Mice. C57BL/6J wild type mice were divided into 8 groups and treated with DMSO, TO901317 at 0.5 mg/kg, TO901317 at 1.5 mg/kg, TO901317 at 10 mg/kg, or sHDL blank particles, TO901317-encapsulated sHDL particles with TO901317 at 0.5 mg/kg, TO901317-encapsulated sHDL particles with TO901317 at 1.5 mg/kg, TO901317-encapsulated sHDL particles with TO901317 at 10 mg/kg via intraperitoneal injection. Twenty-four hours later, collected plasma and liver tissues were stored at −80° C. until processed. Direct LDL-cholesterol (LDL-c), direct HDL-cholesterol (HDL-c), and enzymatic-colorimetric assays used to determine plasma total cholesterol (TC) and triglycerides (TG) were carried out at the Chemistry Laboratory of the Michigan Diabetes Research and Training Center.

ABCG1 [2] = assay: qRT-PCR of ABCG1 expression in J774.1 macrophages; format: cell-based, murine; conditions: FIG. 3D
Protocol: (§2) Incorporation of LXR agonist into sHDL is the first and most important step for all subsequent studies. Phospholipids, apoA-I mimetic peptide (22A) and LXR agonist TO901317 (TO) were hydrated in an aqueous solution and the sHDL nanoparticles were formed after 3 cycles of thermal cycling between 25 and 50° C. (see, e.g., Di Bartolo, B. A.; et al., Atherosclerosis 2011, 217 (2), 395-400; Dasseux, J.-L. Peptide/lipid complex formation by co-lyophilization. 2001). The homogeneity of the size distribution was confirmed by gel permeation chromatography (GPC) and scanning electron microscopy (SEM) (FIG. 3A-B). The average particle size of sHDL was 6-14 nm (e.g., 8-10 nm) as determined by dynamic light scattering using a Malvern Nanosizer. […]
(§3) In macrophages, LXRs control transcription of several genes involved in the cholesterol efflux pathway, including ABCA1 and ABCG1. To examine the ability of TO901317-encapsulated sHDL particles to activate LXR-target genes, J774.1 murine macrophage cells were incubated with sHDL blank particles or TO901317-encapsulated sHDL particles (TO901317 at 10^−6M) for 4 hours and the expression of both genes were measured using quantitative real-time PCR (qRT-PCR). […] The resulting cDNA was amplified with appropriate primers using power SYBR Green PCR Master Mix and analyzed on a CFX real-time PCR system (Bio-Rad). […]

SREBP1c [3] = assay: qRT-PCR of SREBP1c in the liver of apoE−/− mice; format: in vivo; conditions: liver tissues from FIG. 12, FIG. 13
Protocol: (§4) Six-week-old male apoE^−/− mice were place on atherogenic high fat diet (HFD) for 12 weeks to induce atherosclerotic lesion formation. Mice were randomly divided into five groups, and each group was treated with intraperitoneal injections of the following regimens with an equivalent dose of 1.5 mg/kg entrapped TO901317: 1) PBS, 2) DMSO, 3) TO901317 dissolved in dimethyl sulfoxide (DMSO) (free TO901317), 4) sHDL nanoparticles, or 5) TO901317-encapsulated sHDL particles. The mice were treated for 6 weeks (three times per week, on Monday, Wednesday and Friday). Liver tissue triglyceride concentrations were measured using a Triglyceride Quantification Kit (Cayman). Fifty mg of liver was homogenized in a 5% NP-40 buffer, and assay was performed according to manufacturer's directions.
LXR ligands have been implicated in triggering induction of the lipogenic pathway via activation of SREBP-1c in the liver, which leads to the adverse effects of steatosis and hypertriglyceridemia. The liver tissues from FIG. 12 were used to detect the expression of SREBP1c and Fatty acid synthase (FAS) using qRT-PCR as described in FIG. 5.

SREBP1c [4] = assay: qRT-PCR of SREBP1c expression in the liver of C57BL/6J mice; format: in vivo; conditions: liver tissues from FIG. 8, FIG. 9
Protocol: To visualize whether sHDL can deliver its cargo to the plaque efficiently, a lipophilic near-infrared fluorescent dye, DiD, was incorporated into sHDL. […] The DiD-labeled sHDL nanoparticles were administrated by tail vein injection at a dose of 100 μg DiD and 10 mg/Kg sHDL to a murine atherosclerosis model. 24 hours post injection, animals were sacrificed and aortas were removed. DiD fluorescence associated with aortas were analyzed using the Xenogen IVIS optical imaging system. […] The side effects of different LXR agonist formulations were assessed.
as §1, with “Direct LDL-cholesterol (LDL-c), direct HDL-cholesterol (HDL-c), and enzymatic-colorimetric assays used to determine plasma total cholesterol (TC) and triglycerides (TG) were carried out at the Chemistry Laboratory of the Michigan Diabetes Research and Training Center.” left out

ABCA1 [5] = assay: qRT-PCR of ABCA1 in blood monocytes of treated apoE−/− mice; format: in vivo; conditions: 1.5 mg/kg TO901317 i.p., three times per week, 6 weeks, FIG. 11
Protocol: (§5) The effect of TO901317-encapsulated sHDL on target gene expression in monocytes from apoE^−/− mice was also investigated. Six-week-old male apoE^−/− mice were place on atherogenic high fat diet (HFD) for 12 weeks to induce atherosclerotic lesion formation. Mice were randomly divided into five groups, and each group was treated with intraperitoneal injections of the following regimens with an equivalent dose of 1.5 mg/kg entrapped TO901317: 1) PBS, 2) DMSO, 3) TO901317 dissolved in dimethyl sulfoxide (DMSO) (free TO901317), 4) sHDL nanoparticles, or 5) TO901317-encapsulated sHDL particles. The mice were treated for 6 weeks (three times per week, on Monday, Wednesday and Friday). The monocytes from the blood were isolated and the expression of ABCA1 and ABCG1 was detected by qRT-PCR as described in FIG. 5.

[6] = Plasma lipids in apoE-deficient mice; format: in vivo; conditions: apoE-deficient mice on HFD, i.p., three times per week, 6 weeks, FIG. 22
Protocol: Six-week-old male apoE^−/− mice were place on HFD for 6 weeks to induce atherosclerotic lesion formation. Mice were randomized into 5 groups and received intraperitoneal injection with 1) PBS, 2) DMSO, 3) CD3254 dissolved in dimethyl sulfoxide (DMSO) (free CD3254, at 0.1 mg/kg), 4) sHDL nanoparticles, or 5) CD3254-encapsulated sHDL particles with a dose of 0.1 mg/kg of CD3254. The mice were treated for 6 weeks (three times per week, on Monday, Wednesday and Friday). Direct LDL-cholesterol (LDL-c), direct HDL-cholesterol (HDL-c), and enzymatic-colorimetric assays used to determine plasma total cholesterol (TC) and triglycerides (TG) were carried out at the Chemistry Laboratory of the Michigan Diabetes Research and Training Center.

[7] = Liver tissue triglyceride in apoE−/− mice; format: in vivo; conditions: 1.5 mg/kg TO901317 i.p., three times per week, 6 weeks, FIG. 12
Protocol: as §4

ABCA1 [8] = assay: qRT-PCR of ABCA1 expression in J774.1 macrophages; format: cell-based, murine; conditions: FIG. 3C
Protocol: as §2, §3

ABCG1 [9] = assay: qRT-PCR of ABCG1 in blood monocytes of treated apoE−/− mice; format: in vivo; conditions: 1.5 mg/kg TO901317 i.p., three times per week, 6 weeks, FIG. 11
Protocol: as §5

## O=S(=O)(c1ccccc1)N(CC(F)(F)F)c1ccc(C(O)(C(F)(F)F)C(F)(F)F)cc1 [TO901317]
[1]
  plasma TG levels: significantly elevated
ABCG1 [2]
  ABCG1 expression (qRT-PCR): upregulated
SREBP1c [3]
  expression of SREBP1c in the liver (qRT-PCR): activated SREBP1c
SREBP1c [4]
  expression of SREBP1c in the liver (qRT-PCR): activated SREBP1c
ABCA1 [5]
  ABCA1 expression in monocytes (qRT-PCR): activated the expression
[6]
  plasma TG levels: significantly elevated
[7]
  triglyceride accumulation in the liver: significantly induced the accumulation of triglyceride
ABCA1 [8]
  ABCA1 expression (qRT-PCR): upregulated
ABCG1 [9]
  ABCG1 expression in monocytes (qRT-PCR): activated the expression
